Two substances from US20040082503A1, “Methods for treatment of diabetes using peptide analogues of insulin” (Neurocrine Biosciences, Inc., priority 1998, published 2004) can be followed below.

Assay [1] relates to Insulin B chain (9-23) specific murine T cell clone PD12-4.9. Kind of assay: Proliferation of insulin B chain (9-23) specific murine T cell clone PD12-4.9. The format is cell-based, mouse (NOD). The conditions noted are these: clone PD12-4.9, 50 μM peptide, Exp. 1 and 2; for S.I. (Stimulation Index): cpm with peptide/cpm in medium alone. Here is the method: Insulin specific NOD T cell lines were established by culturing lymphocytes isolated from islet-infiltrating populations by in vitro stimulation with either porcine insulin at 25 μg/ml and irradiated NOD islet cell in the presence of irradiated NOD spleen cells as antigen presenting cells and cytokines. To obtain the infiltrating lymphocytes the following procedures were performed (see Wegmann et al., Eur. J. Immunol. 24:1853, 1994): the pancreas from the NOD mouse was digested with collagenase and individual islets were isolated manually. The infiltrating lymphocytes were then obtained by mild trypsin digestion of the islets. The insulin specific T cell lines or clones were propagated by serial stimulation in the presence of NOD spleen cells, porcine insulin and lymphokines. Clones were obtained by limiting dilution of the B chain (9-23) specific T cell lines in the presence of the antigen presenting cells and porcine insulin at 25 μg/ml. Wells with a growing population of cells following limiting dilution were expanded in appropriate medium, and after one cycle of growth were tested for reactivity to the B chain (9-23) peptide of insulin by evaluating the proliferative response.
Insulin B chain (9-23) (SEQ ID NO:2) specific mouse (NOD) T cell clones were isolated from infiltrated islets as described in Example 2. Peptide analogues with single alanine substitutions were prepared as described in Example 1. The effect of each analogue on T cell proliferation was then evaluated using an assay performed in 96-well flat bottom microtiter plates (see Daniel et al., Eur. J. Immunol. 25:1056, 1995). Briefly 25,000 T cell clones along with 1 million irradiated NOD spleen cells were cultured in the presence of 50 μg/ml of insulin B chain 9-23 peptide or any of the alanine substituted peptides listed below in triplicate sets. The plates were incubated for a total of 72 hours in 7% carbon dioxide atmosphere with a pulse of 1 μCi/well of tritiated thymidine for the last 6-8 hours of culture. Cells were harvested on a glass fiber filter and the associated radioactivity was counted in a liquid scintillation counter. Results are expressed as mean counts per minute of triplicate wells.
NOD T cell clones were incubated in the presence of 50 μM of either the native B chain (9-23) peptide or NBI-6024. The data in Table 3 represent the mean of triplicate sample±standard error of the mean. Within Table 3, S.I. (Stimulation Index)=proliferation (cpm) in the presence of the peptide/proliferation (cpm) in medium alone.

Assay [2] concerns Murine NOD T cell clone PD12-2.35 response to insulin B chain (9-23) peptide. Briefly: Antagonism of T cell proliferation assay, clone PD12-2.35. The format is cell-based, mouse (NOD). The conditions noted are these: for % Inhibition: N/A = no inhibition observed. Here is the method: Peptide analogues of B chain (9-23) containing alanine substitutions at residue 12, 13, 15 or 16 or the doubly substituted peptide at positions 16 and 19 (A^16,19; NBI-6024) were prepared as described in Example 1. T cell antagonism was detected by evaluating the ability of the peptide analogues to inhibit T cell proliferation induced by native B chain (9-23) (SEQ ID NO:2). In this assay, antigen presenting cells were first irradiated and then incubated with the competing peptide analogue and the native B chain (9-23) peptide. T cells were then added to the culture. Various concentrations of candidate peptide analogues were included in cultures which were incubated for a total of 4 days. Following this incubation period, each culture was pulsed with 1 μCi of [^3H]-thymidine for an additional 12-18 hours. Cultures were then harvested on fiberglass filters and counted as above. Mean CPM and standard error of the mean were calculated from data determined in triplicate cultures.
Within Table 4, the control peptide, NBI-5096, is an unrelated peptide from myelin basic protein. The percent inhibition was calculated as: (1−experimental cpm/insulin peptide cpm)×100%.

For assay [3], the system named is lymph node and spleen cells from immunized NOD mice. Kind of assay: Immunogenicity in NOD mice: proliferative response of lymph node/spleen cells of immunized mice. The format is cell-based, NOD mouse. Here is the method:
FIGS. 17A and 17B are graphs showing the ability of a double substituted peptide (A^16,19) to evoke an immune response. Five female NOD mice were immunized subcutaneously with 20 mg/kg of soluble NBI-6024 on days 1, 6 and 12. On day 15, the mice were sacrificed, the inguinal lymph node cells removed and culture in the presence of varying concentrations (0-50 μM) of either NBI-6024 (FIG. 17A) or insulin B chain (9-23) peptide (FIG. 17B). The extent of T-cell proliferation was determined using ^3H-thymidine incorporation. The response is expressed as mean CPM±SEM of triplicate cultures.
Groups of 3-4 NOD mice were immunized with 100-400 μg of peptide analogues subcutaneously in mannitol acetate buffer three times within a period of 10-15 days. Following the last immunization, lymph node cells and/or spleen cells were used in a proliferation assay in which different concentrations of the immunizing peptide were cultured with the cells for 3-4 days. The last 18 hours of culture included tritiated thymidine. Cells were harvested and counted in a scintillation counter and the response is expressed as CPM±SEM.
The ability of the double substituted peptide NBI-6024 (A^16,19) to induce a cellular immune response in NOD mouse strain was next determined. Two female NOD mice were immunized with 10 mg/kg NBI-6024 either as an aqueous suspension or, as a control, emulsified in complete Freund's adjuvant (CFA). On Day 8, three days following the last injection, the mice were sacrificed, the spleen and inguinal lymph node cells were removed and pooled, and a single-cell suspension was prepared. Cells were cultured in the presence of varying concentrations (0-25 μM) of NBI-6024. The ability of these lymphoid cells to proliferate in response to NBI-6024 was measured in vitro by [^3H]-thymidine incorporation.

Setting [4] is: B(9-23) 5 μM + 10 μM competing peptide.
Setting [5] is: B(9-23) 5 μM + 50 μM competing peptide.
Setting [6] is: T cells of Mouse #1 immunized with soluble NBI-6024, challenge peptide 1 μM, 0 μM 19,130 ± 2191.
Where [7] appears, read: T cells of Mouse #1 immunized with soluble NBI-6024, challenge peptide 5 μM.
[8] abbreviates: T cells of Mouse #1 immunized with soluble NBI-6024, challenge peptide 25 μM.
Setting [9] is: T cells of Mouse #2 immunized with soluble NBI-6024, challenge peptide 1 μM, 0 μM 21,588 ± 2326.
[10] abbreviates: T cells of Mouse #2 immunized with soluble NBI-6024, challenge peptide 5 μM.
Where [11] appears, read: T cells of Mouse #2 immunized with soluble NBI-6024, challenge peptide 25 μM.
The mark [12] stands for this setting: T cells of Mouse #3 immunized with soluble NBI-6024, challenge peptide 1 μM, 0 μM 24,006 ± 2803.
Setting [13] is: T cells of Mouse #3 immunized with soluble NBI-6024, challenge peptide 5 μM.
Setting [14] is: T cells of Mouse #3 immunized with soluble NBI-6024, challenge peptide 25 μM.
Where [15] appears, read: listed as Insulin B Chain (9-23).

Several values for one entry are separate records, joined by “and”; a condition that tells them apart may be missing. Equal entries are not always repeated.

Turning to “NBI-6024: insulin B chain 9-23 with alanine substitutions at positions 16 and 19 (SHLVEALALVAGERG)”, the “Proliferative response, Mean cpm ± sem” value in assay [1] was 12,313 ± 1,372 cpm and 6,171 ± 725 cpm. Further, the “S.I. (Stimulation Index)” value in assay [1] is 1.35 and 0.85. Moreover, the “CPM ± SEM” value in assay [2] (setting [4]) is given as 4,441 ± 626 CPM; in assay [2] (setting [5]) it was 1,389 ± 218 CPM; in assay [3] (setting [6]), 48,319 ± 1918 CPM; in assay [3] (setting [7]), 160,673 ± 2269 CPM; in assay [3] (setting [8]) it was 268,005 ± 11198 CPM; in assay [3] (setting [9]), 54,519 ± 5666 CPM. Further, the “CPM ± SEM” value in assay [3] (setting [10]) is on record as 126,123 ± 13851 CPM; in assay [3] (setting [11]) it was 202,707 ± 8125 CPM; in assay [3] (setting [12]), 64,239 ± 9493 CPM; in assay [3] (setting [13]), 140,836 ± 11778 CPM; in assay [3] (setting [14]) it was 240,278 ± 15015 CPM. Moreover, the “% Inhibition” value was found to be 43.0% in assay [2] (setting [4]) and 82.0% in assay [2] (setting [5]). Moreover, the figures for the “Cross-reactive response to Insulin B chain (9-23)” value in assay [3] (CFA-emulsified peptide) and in assay [3] (lymphocytes from mice immunized with the soluble peptide) were “not seen” and “also responded to Insulin B chain (9-23)”, respectively. Further, in assay [3] (lymph node cells from mice immunized with the analogue in CFA, dose-dependent), the “Proliferative response to challenge with the immunizing analogue” value is “strong proliferative response”. Also, the “Proliferative response to NBI-6024 challenge in vitro” value in assay [3] (spleen and inguinal lymph node cells after soluble administered peptide) is “strong proliferative response”.

Regarding “Native 9-23: native peptide, residues 9-23 of human insulin B chain (SEQ ID NO:2) (SHLVEALYLVCGERG; Residues 9-23 of human insulin B chain; listed as Homo sapiens) [reference compound]”, the “Proliferative response, Mean cpm ± sem” value in assay [1] (setting [15]) is 45,541 ± 5,222 cpm and 65,624 ± 4,979 cpm. In addition, the “S.I. (Stimulation Index)” value in assay [1] (setting [15]) is 4.99 and 9.1. For the same substance, the “CPM ± SEM” value in assay [2] (B(9-23) 5 μM alone, medium only 213 ± 17) is 7,840 ± 528 CPM; in assay [3] (setting [6]) it was 16,870 ± 4469 CPM; in assay [3] (setting [7]) it was 21,292 ± 3216 CPM; in assay [3] (setting [8]), 33,317 ± 3619 CPM; in assay [3] (setting [9]), 17,262 ± 602 CPM; in assay [3] (setting [10]), 19,648 ± 2169 CPM. Also, the “CPM ± SEM” value was 30,612 ± 3557 CPM in assay [3] (setting [11]), 25,825 ± 3841 CPM in assay [3] (setting [12]), 58,567 ± 2737 CPM in assay [3] (setting [13]) and 113,366 ± 515 CPM in assay [3] (setting [14]).
